Source: ChEMBL document CHEMBL1153356, “Inhibition of NF-kB and metalloproteinase-9 expression and secretion by parthenolide derivatives” (Bioorg Med Chem Lett, 2009)
Active and inactive are the calls of the source. The rule behind the calls is not given here.

Key:
[1] = Inhibition of NF-kappaB-mediated transcriptional activity transfected in PMA-stimulated HEK293 cells after 24 hrs by luciferase reporter gene assay; type: cell-based; conditions: HEK293, 24 h
[2] = test system: HEK293; assay: Inhibition of MMP9 gene transcription in PMA-stimulated HEK293 cells after 24 hrs by luciferase reporter gene assay; type: functional, cell-based; conditions: Homo sapiens, HEK293, 24 h
[3] = test system: HEK293; assay: Cytotoxicity against HEK293 cells at 20 uM by MTT assay; type: cell-based; conditions: human, hek293, 20 µM
[4] = test system: THP-1; assay: Cytotoxicity against human THP1 cells at 20 uM by MTT assay; type: functional, cell-based
[5] = test system: THP-1; assay: Inhibition of MMP9 secretion in PMA-stimulated human THP1 cells at 20 uM; type: functional, cell-based

Question: With `C=C1C(=O)O[C@@H]2C3O[C@]3(C)CC/C=C(\C)CC[C@@H]12` (stereo partly drawn) as the compound, how does the IC50 [1] read?
Answer: The IC50 was 9.76 µM.

Question: And the IC50 [2]?
Answer: Its IC50 is 6.6 µM.

Question: What about the Activity [3] of the same compound?
Answer: Its Activity is “Non-toxic”.

Question: What about the Activity [4] of the same compound?
Answer: The Activity was “Not toxic”.

Question: What about the Activity [5] of the same compound?
Answer: Its Activity is “Active”.

Question: For `C=C1C(=O)O[C@@H]2[C@@H](O)[C@]3(C)CC[C@H]3[C@](C)(O)CC[C@@H]12`, which IC50 [1] is on record?
Answer: Its IC50 is 2.8 µM.

Question: What about the IC50 [2] of the same compound?
Answer: Its IC50 is 3.8 µM.

Question: What about the Activity [3] of the same compound?
Answer: The Activity was “Non-toxic”.

Question: What about the Activity [4] of the same compound?
Answer: Its Activity is “Not toxic”.

Question: For `C=C1C(=O)O[C@H]2[C@@H]3[C@@H](CC[C@@]3(C)O)[C@](C)(OC)CC[C@@H]12`, which IC50 [1] is on record?
Answer: Its IC50 is 6 µM.

Question: What about the IC50 [2] of the same compound?
Answer: Its IC50 is 8.6 µM.

Question: And the Activity [3]?
Answer: Its Activity is “Non-toxic”.

Question: What about the Activity [4] of the same compound?
Answer: Its Activity is “Not toxic”.

Question: What about the Activity [5] of the same compound?
Answer: Its Activity is “Active”.

Question: Which results are given for `C=C1C(=O)O[C@H]2[C@@H]3[C@@H](CC[C@@]3(C)O)C(=C)CC[C@@H]12`?
Answer: IC50 [1]: 8.8 µM; IC50 [2]: 6.6 µM; Activity [3]: Non-toxic; Activity [4]: Not toxic; Activity [5]: Active

Question: Which results are given for `C=C1C(=O)O[C@H]2[C@H]1CC/C(C)=C\CC[C@@]1(C)O[C@@H]21`?
Answer: IC50 [1]: 7.4 µM; IC50 [2]: 8.5 µM; Activity [3]: Non-toxic; Activity [4]: Not toxic; Activity [5]: Active

Question: For `C=C1C(=O)O[C@@H]2[C@@H](O)[C@]3(C)CC[C@H]3[C@](C)(OC)CC[C@@H]12`, which IC50 [1] is on record?
Answer: Its IC50 is 2.04 µM.

Question: What about the IC50 [2] of the same compound?
Answer: The IC50 was 3.2 µM.

Question: What about the Activity [3] of the same compound?
Answer: Its Activity is “Non-toxic”.

Question: What about the Activity [4] of the same compound?
Answer: The Activity was “Not toxic”.
